Experiments:
bed bugs [1] = test: ST traps, kairomone components (Example 9); assay type: in vivo, Cimex lectularius; conditions: combined with CO2 and heat, Location 4
Method: The kairomone composition of A1 was split into it components by chemical class, to determine if all components were necessary. Three new kairomone blends were tested (Table 3, Example 4). Blend A2 contained only skatole and androstenone (male boar compounds), and the adjuvants. Blend A3 contained all the ingredients from A1, but in slightly different ratios. Blend A4 contained only the fatty acid components and adjuvants. Four treatments were tested as follows: T0=CF1S+HW;T1=CF1+HW+A3;T2=CF1+HW+A2;T3=CF1+HW+A4
For treatment T0, the CO2 blend was made without skatole (CF1S, Table 1, Example 1). All treatments were tested using ST traps assembled as in Example 4.
A new location was used for testing kairomone components. Location 4 was an inhabited, 2-bedroom duplex in the suburbs of Seattle. Vacuum sampling estimated bed bug populations in each room at between 2,000 and 10,000 insects, which is considered heavily infested. Two people slept in the bedrooms on cots raised 50 cm off the carpet, which were then isolated from bed bugs in harborages by placing under each bed leg a plastic 16 oz drinking cup filled with propylene glycol or white pepper powder. […]

bed bugs [2] = test: ST traps, adding skatole to carbon dioxide bait (Example 10); design: species or system Cimex lectularius; conditions: in vivo
Source text: Four ST traps from Example 3, baited with CF1, were paired with four ST traps baited with CF1S. Traps were placed in each of four corners of the location in Example 3. Traps were retrieved after one night. […] Additionally, all CF1 traps caught at least 2 bed bugs whereas half of the CF1S traps caught no bed bugs.

SMILES | attractiveness of kairomone blend or component to bed bugs (bed bugs [1]) | effect of adding to the fermentative mixture on trap attractiveness (bed bugs [2])
C[C@]12CCC(=O)C[C@@H]1CC[C@@H]1[C@@H]2CC[C@]2(C)C=CC[C@@H]12 [androstenone] | acted synergistically with the fatty acid compounds to attract bed bugs | –
Cc1c[nH]c2ccccc12 [skatole, 3-methyl indole] | – | increased trap attractiveness to bed bugs
